Data published in ChEMBL document CHEMBL5500417, “Discovery of Novel 2-Oxoacetamide Derivatives as B3GAT3 Inhibitors for the Treatment of Hepatocellular Carcinoma” (J Med Chem, 2024).

Columns and labels:
[1] = test system: HCCLM3; assay: In vivo-antitumor activity against human HCCLM3 cells xenografted BALB/c mouse model assessed as tumor growth inhibitor at 10 mg/kg, IG once daily measured after 31 days relative to control; details: HCCLM3, po, 744 h, read-out: TGI
[2] = test system: NCI-H446; assay: cells; details: Homo sapiens, NCI-H446, 72 h
Description: Anti-tumor activity against human NCI-H446 cells assessed as inhibition of cell growth measured after 72 hrs by CCK-8 assay

[3] = molecular target: T1, Galactosylgalactosylxylosylprotein 3-beta-glucuronosyltransferase 3 (Homo sapiens, UniProt O94766); assay: Binding affinity to biotinylated B3GAT3 (unknown origin) assessed as dissociation constant by biolayer interferometry (BLI) analysis
T1 sequence (O94766 whole entry): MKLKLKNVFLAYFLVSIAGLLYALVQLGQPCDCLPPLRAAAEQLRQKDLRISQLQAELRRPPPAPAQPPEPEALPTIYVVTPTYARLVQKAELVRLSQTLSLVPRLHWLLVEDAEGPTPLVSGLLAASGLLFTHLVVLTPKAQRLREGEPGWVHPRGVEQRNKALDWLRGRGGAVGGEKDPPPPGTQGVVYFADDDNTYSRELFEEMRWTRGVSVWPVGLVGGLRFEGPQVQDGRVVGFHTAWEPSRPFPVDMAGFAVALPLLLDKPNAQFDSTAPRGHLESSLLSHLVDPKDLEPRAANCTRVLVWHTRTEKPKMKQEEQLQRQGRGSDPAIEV

[4] = test system: MEG-01; assay: cells; details: Homo sapiens, MEG-01, 72 h
Description: Anti-tumor activity against human MEG-01 cells assessed as inhibition of cell growth measured after 72 hrs by CCK-8 assay

[5] = Half life in BALB/c mouse at 10 mg/kg, po measured upto 24 hrs by LC-MS/MS analysis; details: in vivo
[6] = test system: MHCC97H; assay: Cytotoxicity against (shRNA)-mediated B3GAT3 KO human MHCC97H cells assessed as cell viability measured after 72 hrs by CCK8 assay
[7] = test system: K562; assay: cells; details: Homo sapiens, K562, 72 h
Description: Anti-tumor activity against human K562 cells assessed as inhibition of cell growth measured after 72 hrs by CCK-8 assay

[8] = in vitro; details: human, liver microsomes
Description: Metabolic stability in human liver microsomes assessed as half life at 0.02 uM measured upto 60 mins by LC-MS/MS analysis

[9] = test system: MKN-45; assay: cells; details: Homo sapiens, MKN-45, 72 h
Description: Anti-tumor activity against human MKN-45 cells assessed as inhibition of cell growth measured after 72 hrs by CCK-8 assay

[10] = Half life in BALB/c mouse at 1.2 mg/kg, iv measured upto 24 hrs by LC-MS/MS analysis; details: in vivo
[11] = test system: HCCLM3; assay: In vivo-antitumor activity against human HCCLM3 cells xenografted BALB/c mouse model assessed as reduction in tumor weight at 5 mg/kg, IG once daily measured after 31 days relative to control; details: HCCLM3, po, 744 h, read-out: INH
[12] = Clearance in BALB/c mouse at 1.2 mg/kg, iv measured upto 24 hrs by LC-MS/MS analysis; details: in vivo
[13] = test system: Huh-7; assay: cells; details: Homo sapiens, Huh-7, 72 h
Description: Antitumor activity against human Huh-7 cells assessed as inhibition of cell proliferation measured after 72 hrs by CCK-8 assay

[14] = test system: H4; assay: cells; details: Homo sapiens, H4, 72 h
Description: Anti-tumor activity against human H4 cells assessed as inhibition of cell growth measured after 72 hrs by CCK-8 assay

[15] = test system: MHCC97H; assay: Cytotoxicity against (shRNA)-Ctrl transfected human MHCC97H cells assessed as cell viability measured after 72 hrs by CCK8 assay
[16] = test system: Hepa 1-6; assay: cells; details: Mus musculus, Hepa1-6, 72 h
Description: Antitumor activity against mouse Hepa1-6 cells assessed as inhibition of cell proliferation measured after 72 hrs by CCK-8 assay

[17] = test system: AGS; assay: cells; details: Homo sapiens, 72 h
Description: Anti-tumor activity against human AGS cells assessed as inhibition of cell growth measured after 72 hrs by CCK-8 assay

[18] = test system: MHCC97H; assay: cells; details: Homo sapiens, 72 h
Description: Antitumor activity against human MHCC97H cells assessed as inhibition of cell proliferation measured after 72 hrs by CCK-8 assay

[19] = test system: HT-29; assay: cells; details: Homo sapiens, HT-29, 72 h
Description: Anti-tumor activity against human HT-29 cells assessed as inhibition of cell growth measured after 72 hrs by CCK-8 assay

[20] = in vivo; details: BALB/c, mouse, po, 10 mg/kg
Description: Tmax in BALB/c mouse at 10 mg/kg, po measured upto 24 hrs by LC-MS/MS analysis

[21] = test system: MHCC97H; assay: In vivo-antitumor activity against human MHCC97H cells xenografted BALB/c mouse model assessed as tumor growth inhibitor at 5 mg/kg, IG once daily measured after 31 days relative to control; details: po, 744 h, read-out: TGI
[22] = test system: Calu-3; assay: cells; details: Homo sapiens, Calu-3, 72 h
Description: Anti-tumor activity against human Calu-3 cells assessed as inhibition of cell growth measured after 72 hrs by CCK-8 assay

[23] = in vitro; details: mouse, liver microsomes
Description: Metabolic stability in mouse liver microsomes assessed as half life at 0.02 uM measured upto 60 mins by LC-MS/MS analysis

[24] = Clearance in BALB/c mouse at 10 mg/kg, po measured upto 24 hrs by LC-MS/MS analysis; details: in vivo
[25] = in vitro; details: rat, liver microsomes
Description: Metabolic stability in rat liver microsomes assessed as half life at 0.02 uM measured upto 60 mins by LC-MS/MS analysis

[26] = test system: Hep 3B2; assay: cells; details: Homo sapiens, Hep3B, 72 h
Description: Antitumor activity against human Hep3B cells assessed as inhibition of cell proliferation measured after 72 hrs by CCK-8 assay

[27] = test system: SNU-387; assay: cells; details: Homo sapiens, SNU-387, 72 h
Description: Antitumor activity against human SNU-387 cells assessed as inhibition of cell proliferation measured after 72 hrs by CCK-8 assay

[28] = test system: HCCLM3; assay: cells; details: Homo sapiens, HCCLM3, 72 h
Description: Antitumor activity against human HCCLM3 cells assessed as inhibition of cell proliferation measured after 72 hrs by CCK-8 assay

[29] = molecular target: T1, Galactosylgalactosylxylosylprotein 3-beta-glucuronosyltransferase 3; assay: Binding affinity to CM5 sensor chip immobilized human B3GAT3 assessed as dissociation constant by SPR analysis
[30] = test system: MHCC97H; assay: In vivo-antitumor activity against human MHCC97H cells xenografted BALB/c mouse model assessed as tumor growth inhibitor at 20 mg/kg, IG once daily measured after 31 days relative to control; details: po, 744 h, read-out: TGI
[31] = test system: U-937; assay: cells; details: Homo sapiens, U-937, 72 h
Description: Anti-tumor activity against human U-937 cells assessed as inhibition of cell growth measured after 72 hrs by CCK-8 assay

[32] = test system: MHCC97H; assay: In vivo-antitumor activity against human MHCC97H cells xenografted BALB/c mouse model assessed as tumor growth inhibitor at 10 mg/kg, IG once daily measured after 31 days relative to control; details: po, 744 h, read-out: TGI
[33] = test system: THP-1; assay: cells; details: Homo sapiens, THP-1, 72 h
Description: Anti-tumor activity against human THP-1 cells assessed as inhibition of cell growth measured after 72 hrs by CCK-8 assay

[34] = test system: Jurkat; assay: cells; details: Homo sapiens, 72 h
Description: Anti-tumor activity against human Jurkat cells assessed as inhibition of cell growth measured after 72 hrs by CCK-8 assay

[35] = test system: HCC1937; assay: cells; details: Homo sapiens, HCC1937, 72 h
Description: Anti-tumor activity against human HCC1937 cells assessed as inhibition of cell growth measured after 72 hrs by CCK-8 assay

[36] = in vivo; details: BALB/c, mouse, po, 10 mg/kg; remark: listed apart in the source
Description: Cmax in BALB/c mouse at 10 mg/kg, po measured upto 24 hrs by LC-MS/MS analysis

[37] = in vivo; details: BALB/c, mouse, iv, 1.2 mg/kg
Description: Tmax in BALB/c mouse at 1.2 mg/kg, iv measured upto 24 hrs by LC-MS/MS analysis

[38] = in vivo; details: BALB/c, mouse, iv, 1.2 mg/kg; remark: listed apart in the source
Description: Cmax in BALB/c mouse at 1.2 mg/kg, iv measured upto 24 hrs by LC-MS/MS analysis

[39] = test system: PLC-PRF-5; assay: cells; details: Homo sapiens, PLC-PRF-5, 72 h
Description: Antitumor activity against human PLC-PRF-5 cells assessed as inhibition of cell proliferation measured after 72 hrs by CCK-8 assay

[40] = in vivo; details: BALB/c, mouse, po, 10 mg/kg; remark: listed apart in the source
Description: Oral bioavailability in BALB/c mouse at 10 mg/kg measured upto 24 hrs by LC-MS/MS analysis

[41] = test system: SK-OV-3; assay: cells; details: Homo sapiens, SK-OV-3, 72 h
Description: Anti-tumor activity against human SK-OV-3 cells assessed as inhibition of cell growth measured after 72 hrs by CCK-8 assay

[42] = in vivo; details: BALB/c, mouse, iv, 1.2 mg/kg; remark: listed apart in the source
Description: AUC in BALB/c mouse at 1.2 mg/kg, iv measured upto 24 hrs by LC-MS/MS analysis

[43] = test system: HCCLM3; assay: cells; details: Homo sapiens, HCCLM3, 72 h; remark: listed apart in the source
Description: Antitumor activity against human HCCLM3 cells assessed as inhibition of cell growth measured after 72 hrs by CCK-8 assay

[44] = test system: MHCC97H; assay: cells; details: Homo sapiens, 72 h; remark: listed apart in the source
Description: Antitumor activity against human MHCC97H cells assessed as inhibition of cell growth measured after 72 hrs by CCK-8 assay

[45] = test system: SW-620; assay: cells; details: Homo sapiens, SW-620, 72 h
Description: Anti-tumor activity against human SW620 cells assessed as inhibition of cell growth measured after 72 hrs by CCK-8 assay

[46] = test system: PC-3; assay: cells; details: Homo sapiens, PC-3, 72 h
Description: Anti-tumor activity against human PC-3 cells assessed as inhibition of cell growth measured after 72 hrs by CCK-8 assay

[47] = test system: THLE-2; assay: cells; details: Homo sapiens, THLE-2, 72 h
Description: Antitumor activity against human THLE-2 cells assessed as inhibition of cell proliferation measured after 72 hrs by CCK-8 assay

[48] = in vivo; details: BALB/c, mouse, po, 10 mg/kg; remark: listed apart in the source
Description: AUC in BALB/c mouse at 10 mg/kg, po measured upto 24 hrs by LC-MS/MS analysis

[49] = test system: U-251; assay: cells; details: Homo sapiens, U-251, 72 h
Description: Anti-tumor activity against human U-251MG cells assessed as inhibition of cell growth measured after 72 hrs by CCK-8 assay

[50] = test system: MDA-MB-231; assay: cells; details: Homo sapiens, MDA-MB-231, 72 h
Description: Anti-tumor activity against human MDA-M8-231 cells assessed as inhibition of cell growth measured after 72 hrs by CCK-8 assay

[51] = test system: NCI-H1650; assay: cells; details: Homo sapiens, NCI-H1650, 72 h
Description: Anti-tumor activity against human NCI-H1650 cells assessed as inhibition of cell growth measured after 72 hrs by CCK-8 assay

Structure (SMILES): COC(=O)c1ccc2[nH]cc(C(=O)C(=O)NC3CCN(c4ccc(C)cc4Cl)C3=O)c2c1 (stereo unspecified)
- inhibition in vivo at 10 mg/kg [1]: 59%
- IC50 [2]: 11.6 µM
- Kd [3]: 6.62 µM
- IC50 [4]: 11.5 µM
- half-life at 24 h [5]: 251 min
- IC50 [6]: 17 µM
- IC50 [7]: 8.25 µM
- half-life at 1 h, 0.02 µM [8]: 17 min
- IC50 [9]: 13.9 µM
- half-life at 24 h [10]: 46.2 min
- inhibition in vivo at 5 mg/kg [11]: 58.8%
- clearance at 24 h [12]: 10 mL/min/kg
- IC50 [13]: 12.5 µM
- IC50 [14]: 6.65 µM
- IC50 [15]: 6.92 µM
- IC50 [16]: 6.22 µM
- IC50 [17]: 5.33 µM
- IC50 [18]: 18.9 µM
- IC50 [19]: 4.71 µM
- Tmax at 24 h [20]: 13.2 min
- inhibition in vivo at 5 mg/kg [21]: 23.4%
- IC50 [22]: 41.6 µM
- half-life at 1 h, 0.02 µM [23]: 37.9 min
- CL/F at 24 h [24]: 20 mL/min/kg
- half-life at 1 h, 0.02 µM [25]: 25.9 min
- IC50 [26]: 12.2 µM
- IC50 [27]: 11.7 µM
- IC50 [28]: 18.4 µM
- Kd [29]: 3.96 µM
- inhibition in vivo at 20 mg/kg [30]: 73.5%
- IC50 [31]: 5.99 µM
- inhibition in vivo at 10 mg/kg [32]: 70%
- IC50 [33]: 23.9 µM
- IC50 [34]: 6.69 µM
- IC50 [35]: 47.9 µM
- Cmax at 24 h [36]: 9140 ng/mL
- Tmax at 24 h [37]: 4.8 min
- Cmax at 24 h [38]: 3350 ng/mL
- IC50 [39]: 6.52 µM
- bioavailability at 24 h [40]: 66.4%
- IC50 [41]: 98.7 µM
- AUC at 24 h [42]: 1850 ng·h/mL
- IC50 [43]: 6.22 µM
- IC50 [44]: 6.53 µM
- IC50 [45]: 8.66 µM
- IC50 [46]: 13.7 µM
- IC50 [47]: > 20 µM
- AUC at 24 h [48]: 9520 ng·h/mL
- IC50 [49]: 6.16 µM
- IC50 [50]: 12.3 µM
- IC50 [51]: 21.6 µM
